How the values were obtained:
[1] = target: T1, Human melanocortin (MC5) (Homo sapiens, UniProt P33032); assay: Radioligand binding, human melanocortin MC5 membranes, FlashPlate, [125I]-NDP-αMSH; conditions: compound at 10 μM, [125I]-NDP-αMSH
T1 construct: purchased Perkin Elmer Biosignal
How it was run: (§1)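 Cloned human receptor membranes were coated onto FlashPlate wells and incubated with radioligand and compound (added from a 0.5 mM DMSO daughter plate) for 1 hour at room temperature in the dark. Scintillation counting gave percent inhibition, with DMSO defining total and reference ligand defining non-specific binding.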

[2] = target: T2, Human κ-Opioid (KOP) (Homo sapiens, UniProt P41145); assay: Radioligand binding, human κ-opioid (KOP) membranes, filtration, [3H]-Diprenorphine; conditions: compound at 10 μM, [3H]-Diprenorphine
T2 construct: purchased Perkin Elmer Biosignal
How it was run: (§2)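 Percent inhibition of radioligand binding measured on recombinant human membranes: NK1 with [125I]-Substance P, KOP with [3H]-Diprenorphine. Incubation 1 h at room temperature, then harvest onto 0.3% PEI-soaked filters, cold Tris-HCl pH 7.4 washes and scintillation counting; non-specific binding from reference ligand wells.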

[3] = target: T3, Human Melanocortin (MC3) (Homo sapiens, UniProt P41968); assay: Radioligand binding, human melanocortin MC3 membranes, FlashPlate, [125I]-NDP-αMSH; conditions: compound at 10 μM, [125I]-NDP-αMSH
T3 construct: purchased Perkin Elmer Biosignal
How it was run: as §1

[4] = target: T4, Human neuropeptide Y (NPY-Y1) (Homo sapiens, UniProt P25929); assay: Radioligand binding, human neuropeptide Y NPY-Y1 membranes, FlashPlate, [125I]-PYY; conditions: compound at 10 μM, [125I]-PYY
T4 construct: purchased Perkin Elmer Biosignal
T4 sequence (P25929 1-384): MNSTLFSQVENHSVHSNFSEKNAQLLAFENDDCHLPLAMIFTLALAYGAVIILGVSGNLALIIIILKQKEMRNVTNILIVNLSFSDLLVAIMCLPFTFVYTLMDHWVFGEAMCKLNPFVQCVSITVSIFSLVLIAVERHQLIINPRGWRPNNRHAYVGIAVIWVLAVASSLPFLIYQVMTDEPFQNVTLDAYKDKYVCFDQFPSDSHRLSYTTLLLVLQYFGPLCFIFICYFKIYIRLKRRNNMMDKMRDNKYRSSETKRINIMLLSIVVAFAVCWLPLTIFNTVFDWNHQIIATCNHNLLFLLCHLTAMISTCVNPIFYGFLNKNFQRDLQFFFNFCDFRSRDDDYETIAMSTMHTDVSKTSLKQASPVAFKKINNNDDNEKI
How it was run: as §1

[5] = target: T5, Mouse urotensin (mUR2) (Mus musculus, UniProt Q8VIH9); assay: Radioligand binding, mouse urotensin mUR2 membranes, FlashPlate, [125I]-Urotensin II; conditions: compound at 10 μM, [125I]-Urotensin II
T5 construct: purchased Perkin Elmer Biosignal
T5 sequence (Q8VIH9 1-385): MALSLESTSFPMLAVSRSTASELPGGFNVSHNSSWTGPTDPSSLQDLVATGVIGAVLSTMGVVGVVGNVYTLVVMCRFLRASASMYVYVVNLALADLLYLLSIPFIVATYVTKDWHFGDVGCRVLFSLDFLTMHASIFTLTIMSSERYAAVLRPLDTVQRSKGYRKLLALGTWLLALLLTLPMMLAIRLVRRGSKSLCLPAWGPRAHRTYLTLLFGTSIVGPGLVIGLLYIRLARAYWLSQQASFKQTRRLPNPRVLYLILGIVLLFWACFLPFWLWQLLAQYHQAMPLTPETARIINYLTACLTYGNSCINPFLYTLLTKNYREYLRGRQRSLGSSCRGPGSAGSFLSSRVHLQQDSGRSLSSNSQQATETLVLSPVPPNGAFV
How it was run: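 Cloned mouse urotensin (mUR2) receptor membranes from Perkin Elmer Biosignal were immobilized in FlashPlate microplates using a proprietary coating. Each well got 19.5 μl buffer, then 0.5 μl of DMSO, reference ligand, or compound. Adding 5 μl of [125I]-Urotensin II, diluted to 5× final concentration in binding buffer, started binding. Plates were sealed with TopSeal-A and incubated 1 hour at room temperature in the dark. Wells were counted for 30 seconds each on a TopCount after a 60-second delay, and percentage inhibition was calculated.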

[6] = target: T6, Human neurokinin (NK1) (Homo sapiens, UniProt P25103); assay: Radioligand binding, human neurokinin NK1 membranes, filtration, [125I]-Substance P; conditions: compound at 10 μM, [125I]-Substance P
T6 construct: purchased Perkin Elmer Biosignal
How it was run: as §2

[7] = target: T7, Human δ-opioid (DOP) (Homo sapiens, UniProt P41143); assay: Radioligand binding, human δ-opioid (DOP) membranes, FlashPlate, [3H]-Bremazocine; conditions: compound at 10 μM, [3H]-Bremazocine
T7 construct: purchased Perkin Elmer Biosignal
How it was run: as §1

[8] = target: T8, Human melanin-concentrating hormone (MCH1) (Homo sapiens, UniProt Q99705); assay: Radioligand binding, human melanin-concentrating hormone MCH1 membranes, FlashPlate, [125I]-S36057; conditions: compound at 10 μM
T8 construct: purchased Perkin Elmer Biosignal
How it was run: as §1

[9] = target: T9, Human μ-opioid (MOP) (Homo sapiens, UniProt P35372); assay: Radioligand binding, human μ-opioid (MOP) membranes, FlashPlate, [3H]-Naloxone; conditions: compound at 10 μM, [3H]-Naloxone
T9 construct: purchased Perkin Elmer Biosignal
How it was run: as §1

[10] = target: T10, Human opioid (ORL1) (Homo sapiens, UniProt P41146); assay: Radioligand binding, human opioid ORL1 membranes, FlashPlate, [125I]-Nociceptin; conditions: compound at 10 μM, [125I]-Nociceptin
T10 construct: purchased Perkin Elmer Biosignal
How it was run: as §1

[11] = target: T11, Human Melanocortin (MC4) (Homo sapiens, UniProt P32245); assay: Radioligand binding, human melanocortin MC4 membranes, FlashPlate, [125I]-NDP-αMSH; conditions: compound at 10 μM, [125I]-NDP-αMSH
T11 construct: purchased Perkin Elmer Biosignal
How it was run: as §1

T1 sequence (P33032 whole entry): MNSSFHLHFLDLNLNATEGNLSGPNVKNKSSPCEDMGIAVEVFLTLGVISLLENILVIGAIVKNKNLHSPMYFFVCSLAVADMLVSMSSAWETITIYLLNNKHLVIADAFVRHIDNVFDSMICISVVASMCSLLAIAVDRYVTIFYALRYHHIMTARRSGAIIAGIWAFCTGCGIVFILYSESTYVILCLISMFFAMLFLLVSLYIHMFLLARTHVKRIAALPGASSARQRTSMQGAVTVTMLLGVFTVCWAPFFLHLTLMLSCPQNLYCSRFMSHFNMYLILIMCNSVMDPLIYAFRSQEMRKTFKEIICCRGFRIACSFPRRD
T7 sequence (P41143 whole entry): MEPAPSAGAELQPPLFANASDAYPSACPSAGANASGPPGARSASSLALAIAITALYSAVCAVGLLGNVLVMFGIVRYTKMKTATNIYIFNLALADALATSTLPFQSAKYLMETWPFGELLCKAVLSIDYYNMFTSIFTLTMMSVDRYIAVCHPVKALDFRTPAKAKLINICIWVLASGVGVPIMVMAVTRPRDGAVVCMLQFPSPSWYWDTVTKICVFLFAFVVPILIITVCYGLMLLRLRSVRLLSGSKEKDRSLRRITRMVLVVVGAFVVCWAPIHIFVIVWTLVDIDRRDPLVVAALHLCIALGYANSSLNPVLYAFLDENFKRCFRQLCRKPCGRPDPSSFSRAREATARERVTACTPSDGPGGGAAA
T11 sequence (P32245 whole entry): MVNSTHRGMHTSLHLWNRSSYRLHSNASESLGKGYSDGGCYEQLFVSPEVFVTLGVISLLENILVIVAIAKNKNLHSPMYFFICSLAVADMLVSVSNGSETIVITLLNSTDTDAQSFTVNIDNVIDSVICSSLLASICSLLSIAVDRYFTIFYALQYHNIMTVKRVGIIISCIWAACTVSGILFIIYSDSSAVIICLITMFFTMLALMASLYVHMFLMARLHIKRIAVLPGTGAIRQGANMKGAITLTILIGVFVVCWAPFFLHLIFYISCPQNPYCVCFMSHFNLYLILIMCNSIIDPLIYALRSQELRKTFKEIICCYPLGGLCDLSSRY
T3 sequence (P41968 whole entry): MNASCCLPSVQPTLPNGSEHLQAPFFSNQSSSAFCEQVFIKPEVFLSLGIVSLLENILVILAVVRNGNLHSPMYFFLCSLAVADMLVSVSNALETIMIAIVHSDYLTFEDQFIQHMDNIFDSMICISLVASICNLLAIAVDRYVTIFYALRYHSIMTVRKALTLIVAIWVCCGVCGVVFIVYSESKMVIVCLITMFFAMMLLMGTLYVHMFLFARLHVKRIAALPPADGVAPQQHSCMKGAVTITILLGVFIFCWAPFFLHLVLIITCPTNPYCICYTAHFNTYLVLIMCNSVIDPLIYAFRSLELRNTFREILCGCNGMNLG
T2 sequence (P41145 whole entry): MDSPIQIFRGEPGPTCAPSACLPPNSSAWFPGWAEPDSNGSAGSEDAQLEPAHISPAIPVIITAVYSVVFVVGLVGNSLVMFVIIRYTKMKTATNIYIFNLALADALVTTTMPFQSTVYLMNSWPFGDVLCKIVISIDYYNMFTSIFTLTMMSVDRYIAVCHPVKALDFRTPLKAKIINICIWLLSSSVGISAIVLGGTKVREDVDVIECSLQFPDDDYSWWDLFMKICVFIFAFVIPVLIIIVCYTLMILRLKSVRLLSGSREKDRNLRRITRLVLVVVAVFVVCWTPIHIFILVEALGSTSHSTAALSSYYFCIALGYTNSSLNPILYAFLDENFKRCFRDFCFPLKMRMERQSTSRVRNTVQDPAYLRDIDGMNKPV
T9 sequence (P35372 whole entry): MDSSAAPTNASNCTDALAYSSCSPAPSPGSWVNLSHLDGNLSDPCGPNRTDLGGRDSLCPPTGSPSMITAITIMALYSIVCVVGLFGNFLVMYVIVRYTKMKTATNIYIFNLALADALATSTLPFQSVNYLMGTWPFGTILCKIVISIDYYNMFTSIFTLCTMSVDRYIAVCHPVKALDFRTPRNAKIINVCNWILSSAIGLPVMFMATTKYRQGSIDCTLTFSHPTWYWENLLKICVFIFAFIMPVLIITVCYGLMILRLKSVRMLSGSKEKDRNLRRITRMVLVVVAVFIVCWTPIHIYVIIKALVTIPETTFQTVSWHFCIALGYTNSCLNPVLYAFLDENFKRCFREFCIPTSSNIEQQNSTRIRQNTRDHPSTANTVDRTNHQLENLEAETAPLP
T10 sequence (P41146 whole entry): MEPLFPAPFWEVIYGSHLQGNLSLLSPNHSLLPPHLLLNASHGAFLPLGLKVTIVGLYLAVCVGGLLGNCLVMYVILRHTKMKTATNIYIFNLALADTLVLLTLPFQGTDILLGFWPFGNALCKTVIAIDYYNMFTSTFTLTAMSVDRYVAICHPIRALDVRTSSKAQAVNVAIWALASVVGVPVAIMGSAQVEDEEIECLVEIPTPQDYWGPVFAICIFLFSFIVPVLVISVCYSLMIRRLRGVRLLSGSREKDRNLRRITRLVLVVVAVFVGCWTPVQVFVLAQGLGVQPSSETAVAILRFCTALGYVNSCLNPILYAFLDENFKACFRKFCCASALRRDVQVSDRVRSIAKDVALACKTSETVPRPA
T8 sequence (Q99705 whole entry): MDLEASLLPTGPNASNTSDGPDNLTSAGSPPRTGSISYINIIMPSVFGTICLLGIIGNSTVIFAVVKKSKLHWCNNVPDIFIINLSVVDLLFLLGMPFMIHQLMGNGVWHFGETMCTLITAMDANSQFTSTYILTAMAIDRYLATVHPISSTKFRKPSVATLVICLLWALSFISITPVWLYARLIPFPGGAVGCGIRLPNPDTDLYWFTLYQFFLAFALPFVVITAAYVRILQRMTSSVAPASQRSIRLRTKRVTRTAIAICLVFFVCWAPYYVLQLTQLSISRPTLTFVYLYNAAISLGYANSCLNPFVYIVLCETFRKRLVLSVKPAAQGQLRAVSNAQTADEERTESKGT
T6 sequence (P25103 whole entry): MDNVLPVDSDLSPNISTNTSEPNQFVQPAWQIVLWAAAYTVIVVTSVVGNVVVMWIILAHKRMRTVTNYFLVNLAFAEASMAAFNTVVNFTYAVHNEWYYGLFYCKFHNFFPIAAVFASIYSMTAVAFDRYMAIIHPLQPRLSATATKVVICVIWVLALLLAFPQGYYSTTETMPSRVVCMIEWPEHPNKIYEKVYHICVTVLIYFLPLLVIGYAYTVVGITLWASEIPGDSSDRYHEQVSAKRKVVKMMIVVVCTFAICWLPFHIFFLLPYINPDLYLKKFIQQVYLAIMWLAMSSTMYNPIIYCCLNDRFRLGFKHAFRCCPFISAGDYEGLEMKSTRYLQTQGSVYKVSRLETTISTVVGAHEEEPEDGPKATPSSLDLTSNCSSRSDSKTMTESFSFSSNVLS

| SMILES | A2: inhibition of radioligand binding ([2]; human KOP membranes) | A9: inhibition of radioligand binding ([4]; human NPY-Y1 membranes) | A11: inhibition of radioligand binding ([5]; mouse mUR2 membranes) | A8: inhibition of radioligand binding ([6]; human NK1 membranes) | A1: inhibition of radioligand binding ([7]; human DOP membranes) | A7: inhibition of radioligand binding ([9]; human MOP membranes) | A10: inhibition of radioligand binding ([10]; human ORL1 membranes) | A5: inhibition of radioligand binding ([1]; FlashPlate) | A2: inhibition of radioligand binding ([2]; filtration) | A3: inhibition of radioligand binding ([3]; FlashPlate) | A9: inhibition of radioligand binding ([4]; FlashPlate) | A11: inhibition of radioligand binding ([5]; FlashPlate) | A8: inhibition of radioligand binding ([6]; filtration) | A1: inhibition of radioligand binding ([7]; FlashPlate) | A6: inhibition of radioligand binding ([8]; [125I]-S36057, FlashPlate) | A7: inhibition of radioligand binding ([9]; FlashPlate) | A10: inhibition of radioligand binding ([10]; FlashPlate) | A4: inhibition of radioligand binding ([11]; FlashPlate) | also measured |
| --- | --- | --- | --- | --- | --- | --- | --- | --- | --- | --- | --- | --- | --- | --- | --- | --- | --- | --- | --- |
| NCCC(=O)N[C@H]1C(OCc2ccc3ccccc3c2)O[C@H](COCc2ccc(Cl)cc2)[C@@H](O)[C@@H]1OCc1ccc2ccccc2c1 (stereo partly shown) [compound 446] | − (“−” indicates less than 50% inhibition at 10 μM) | − (“−” indicates less than 50% inhibition at 10 μM) | − (“−” indicates less than 50% inhibition at 10 μM) | + (“+” indicates greater than 50% inhibition at 10 μM) | − (“−” indicates less than 50% inhibition at 10 μM) | − (“−” indicates less than 50% inhibition at 10 μM) | − (“−” indicates less than 50% inhibition at 10 μM) | – | – | – | – | – | – | – | – | – | – | – | A5: inhibition of radioligand binding ([1]; human MC5 membranes): + (“+” indicates greater than 50% inhibition at 10 μM); A3: inhibition of radioligand binding ([3]; human MC3 membranes, 10 µM): − (“−” indicates less than 50% inhibition at 10 μM); A6: inhibition of radioligand binding ([8]; [125I]-S36057, human MCH1 membranes, 10 µM): − (“−” indicates less than 50% inhibition at 10 μM); A4: inhibition of radioligand binding ([11]; human MC4 membranes, 10 µM): − (“−” indicates less than 50% inhibition at 10 μM) |
| NCCC(=O)NC1C(OCc2ccc3ccccc3c2)OC(COCc2ccccc2)C(O)C1OCc1ccccc1 (stereo not shown) [compound 388] | − (“−” indicates less than 50% inhibition at 10 μM) | − (“−” indicates less than 50% inhibition at 10 μM) | − (“−” indicates less than 50% inhibition at 10 μM) | + (“+” indicates greater than 50% inhibition at 10 μM) | − (“−” indicates less than 50% inhibition at 10 μM) | − (“−” indicates less than 50% inhibition at 10 μM) | − (“−” indicates less than 50% inhibition at 10 μM) | – | – | – | – | – | – | – | – | – | – | – | A5: inhibition of radioligand binding ([1]; human MC5 membranes, 10 µM): + (“+” indicates greater than 50% inhibition at 10 μM); A3: inhibition of radioligand binding ([3]; human MC3 membranes): − (“−” indicates less than 50% inhibition at 10 μM); A6: inhibition of radioligand binding ([8]; [125I]-S36057, human MCH1 membranes): − (“−” indicates less than 50% inhibition at 10 μM); A4: inhibition of radioligand binding ([11]; human MC4 membranes): + (“+” indicates greater than 50% inhibition at 10 μM) |
| COCC1OC(OCc2ccc3ccccc3c2)C(NC(=O)CCCNC(=N)N)C(OCc2ccccc2)C1O (stereo not shown) [compound 234] | – | – | – | – | – | – | – | − (“−” indicates less than 50% inhibition at 10 μM) | − (“−” indicates less than 50% inhibition at 10 μM) | − (“−” indicates less than 50% inhibition at 10 μM) | − (“−” indicates less than 50% inhibition at 10 μM) | − (“−” indicates less than 50% inhibition at 10 μM) | + (“+” indicates greater than 50% inhibition at 10 μM) | − (“−” indicates less than 50% inhibition at 10 μM) | − (“−” indicates less than 50% inhibition at 10 μM) | − (“−” indicates less than 50% inhibition at 10 μM) | − (“−” indicates less than 50% inhibition at 10 μM) | − (“−” indicates less than 50% inhibition at 10 μM) | – |
| COCC1OC(OCc2ccc3ccccc3c2)C(NC(=O)CCN)C(OCc2ccccc2)C1O (stereo not shown) [compound 231] | – | – | – | – | – | – | – | − (“−” indicates less than 50% inhibition at 10 μM) | − (“−” indicates less than 50% inhibition at 10 μM) | − (“−” indicates less than 50% inhibition at 10 μM) | − (“−” indicates less than 50% inhibition at 10 μM) | − (“−” indicates less than 50% inhibition at 10 μM) | + (“+” indicates greater than 50% inhibition at 10 μM) | − (“−” indicates less than 50% inhibition at 10 μM) | − (“−” indicates less than 50% inhibition at 10 μM) | − (“−” indicates less than 50% inhibition at 10 μM) | − (“−” indicates less than 50% inhibition at 10 μM) | − (“−” indicates less than 50% inhibition at 10 μM) | – |
| CSC1O[C@H](COCc2ccc(-c3ccccc3)cc2)[C@@H](O)[C@@H](OCc2ccc(Cl)cc2)[C@H]1NC(=O)CCNC(=N)N (stereo partly shown) [compound 277] | – | – | – | – | – | – | – | − (“−” indicates less than 50% inhibition at 10 μM) | − (“−” indicates less than 50% inhibition at 10 μM) | + (“+” indicates greater than 50% inhibition at 10 μM) | − (“−” indicates less than 50% inhibition at 10 μM) | − (“−” indicates less than 50% inhibition at 10 μM) | + (“+” indicates greater than 50% inhibition at 10 μM) | − (“−” indicates less than 50% inhibition at 10 μM) | − (“−” indicates less than 50% inhibition at 10 μM) | − (“−” indicates less than 50% inhibition at 10 μM) | − (“−” indicates less than 50% inhibition at 10 μM) | − (“−” indicates less than 50% inhibition at 10 μM) | – |

Source: patent US20080009418A1, “Selective Inhibitors” (Alchemia LTD., priority 2004, published 2008)
